Among the data in US11858941B2, “Heterocyclic and heteroaryl compounds for treating Huntington's disease” (PTC THERAPEUTICS, INC., priority 2018, dated 2024) are IC50 values, retold here.

For the test, the system named is Endogenous Huntingtin Protein. Description: Endogenous Huntingtin Protein Assay (Meso Scale Discovery ELISA-based electrochemiluminescence). The conditions noted are these: MSD plates coated with MW1 (expanded polyglutamine) or MAB2166 capture antibody; lysates. Type of test: cell-based. An outline of the steps:
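MSD electrochemiluminescence sandwich ELISA: MW1 (expanded polyQ) or MAB2166 capture antibody at 1 μg/mL, samples incubated overnight at 4° C. Detection with rabbit monoclonal #5656S then SULFO-TAG anti-rabbit antibody, each 0.25 μg/mL for 1 h at room temperature.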
`CC1(C)CC(n2ccc3nc(-c4cc(F)c(-c5cn[nH]c5)cc4F)cnc32)CC(C)(C)N1` [Cpd 16, 2-[2,5-difluoro-4-(1H-pyrazol-4-yl)phenyl]-5-(2,2,6,6-tetramethylpiperidin-4-yl)-5H-pyrrolo[2,3-b]pyrazine] showed an IC50 of 100 to 500 nM. `Cn1cnc2cc(-c3cc4nnn(C5CC(C)(C)NC(C)(C)C5)c4nn3)c(O)cc21` [Cpd 92, 1-methyl-5-[3-(2,2,6,6-tetramethylpiperidin-4-yl)-3H-[1,2,3]triazolo[4,5-c]pyridazin-6-yl]-1H-benzimidazol-6-ol] had an IC50 of 1000 to 3000 nM. In the case of `CC1(C)CC(n2nnc3cc(-c4ccc(-c5cc[nH]n5)cc4O)nnc32)CC(C)(C)N1` [Cpd 48, 5-(1H-pyrazol-3-yl)-2-[3-(2,2,6,6-tetramethylpiperidin-4-yl)-3H-[1,2,3]triazolo[4,5-c]pyridazin-6-yl]phenol] it was 100 to 500 nM. On to `CC1(C)CC(n2nnc3cc(-c4ccc(-c5ccc(OC(F)F)cn5)cc4O)nnc32)CC(C)(C)N1` [Cpd 103, 5-[5-(difluoromethoxy)pyridin-2-yl]-2-[3-(2,2,6,6-tetramethylpiperidin-4-yl)-3H-[1,2,3]triazolo[4,5-c]pyridazin-6-yl]phenol], for which the IC50 is 100 to 500 nM. In turn, `CC1(C)CC(n2c(O)nc3cc(-c4ccc(-c5cn[nH]c5)cc4O)nnc32)CC(C)(C)N1` [Cpd 9, 3-[2-hydroxy-4-(1H-pyrazol-4-yl)phenyl]-7-(2,2,6,6-tetramethylpiperidin-4-yl)-7H-imidazo[4,5-c]pyridazin-6-ol] displayed an IC50 of 1000 to 3000 nM.

On to `CC1(C)CC(n2nnc3cc(-c4ccc(-c5cc6nn[nH]c6cn5)cc4O)nnc32)CC(C)(C)N1` [Cpd 146, 2-[3-(2,2,6,6-tetramethylpiperidin-4-yl)-3H-[1,2,3]triazolo[4,5-c]pyridazin-6-yl]-5-(3H-[1,2,3]triazolo[4,5-c]pyridin-6-yl)phenol], for which the IC50 fell in the range of 1000 to 3000 nM. With `CC1(C)C=C(n2ccc3nc(-c4ccc(-c5cn[nH]c5)cc4O)cnc32)CC(C)(C)N1` [Cpd 8, 5-(1H-pyrazol-4-yl)-2-[5-(2,2,6,6-tetramethyl-1,2,3,6-tetrahydropyridin-4-yl)-5H-pyrrolo[2,3-b]pyrazin-2-yl]phenol], the half-inhibitory concentration (IC50) lay within 1000 to 3000 nM. For the compound `CC1(C)CC(n2nnc3cc(-c4ccc(-c5cncnc5)cc4O)nnc32)CC(C)(C)N1` [Cpd 78, 5-(pyrimidin-5-yl)-2-[3-(2,2,6,6-tetramethylpiperidin-4-yl)-3H-[1,2,3]triazolo[4,5-c]pyridazin-6-yl]phenol], the IC50 was 1000 to 3000 nM. `CC1(C)CC(n2nnc3cc(-c4ccc(-c5cn[nH]c5)c(F)c4F)nnc32)CC(C)(C)N1` [Cpd 13, 6-[2,3-difluoro-4-(1H-pyrazol-4-yl)phenyl]-3-(2,2,6,6-tetramethylpiperidin-4-yl)-3H-[1,2,3]triazolo[4,5-c]pyridazine] came in with an IC50 of 100 to 500 nM. In the case of `CC1(C)CC(n2ccc3cc(-c4ncc(-c5cn[nH]c5)cc4O)nnc32)CC(C)(C)N1` [Cpd 136, 5-(1H-pyrazol-4-yl)-2-[7-(2,2,6,6-tetramethylpiperidin-4-yl)-7H-pyrrolo[2,3-c]pyridazin-3-yl]pyridin-3-ol] it was not above 100 nM. As for `CC1(C)CC(n2nnc3cc(-c4ccc(-c5cn[nH]c5)cc4O)nnc32)CC(C)(C)N1` [Cpd 7, 5-(1H-pyrazol-4-yl)-2-[3-(2,2,6,6-tetramethylpiperidin-4-yl)-3H-[1,2,3]triazolo[4,5-c]pyridazin-6-yl]phenol], the IC50 is not above 100 nM. In the case of `CC1(C)CC(n2nnc3cc(-c4ccc(-c5c[nH]nc5Br)cc4O)nnc32)CC(C)(C)N1` [Cpd 137, 5-(3-bromo-1H-pyrazol-4-yl)-2-[3-(2,2,6,6-tetramethylpiperidin-4-yl)-3H-[1,2,3]triazolo[4,5-c]pyridazin-6-yl]phenol] it was not above 100 nM; in that of `CC1(C)CC(n2nnc3cc(-c4cc(Cl)c(-c5cn[nH]c5)cc4O)nnc32)CC(C)(C)N1` [Cpd 83, 4-chloro-5-(1H-pyrazol-4-yl)-2-[3-(2,2,6,6-tetramethylpiperidin-4-yl)-3H-[1,2,3]triazolo[4,5-c]pyridazin-6-yl]phenol], not above 100 nM. Under `CCNc1nc2cc(-c3ccc(-c4cn[nH]c4)cc3O)nnc2n1C1CC(C)(C)NC(C)(C)C1` [Cpd 49, 2-[6-(ethylamino)-7-(2,2,6,6-tetramethylpiperidin-4-yl)-7H-imidazo[4,5-c]pyridazin-3-yl]-5-(1H-pyrazol-4-yl)phenol] stands 1000 to 3000 nM; under `CC1(C)CC(n2nnc3cc(-c4ccc(-c5ccn6ncnc6c5)cc4O)nnc32)CC(C)(C)N1` [Cpd 126, 2-[3-(2,2,6,6-tetramethylpiperidin-4-yl)-3H-[1,2,3]triazolo[4,5-c]pyridazin-6-yl]-5-([1,2,4]triazolo[1,5-a]pyridin-7-yl)phenol], 100 to 500 nM. In turn, `CC1(C)CC(n2nnc3cc(-c4ccc(-c5cnc6nccn6c5)cc4O)nnc32)CC(C)(C)N1` [Cpd 160, 5-(imidazo[1,2-a]pyrimidin-6-yl)-2-(3-(2,2,6,6-tetramethylpiperidin-4-yl)-3H-[1,2,3]triazolo[4,5-c]pyridazin-6-yl)phenol] registered an IC50 of 100 to 500 nM. Under `CC1(C)CC(n2nnc3cc(-c4cc5cccnc5cc4O)nnc32)CC(C)(C)N1` [Cpd 81, 6-[3-(2,2,6,6-tetramethylpiperidin-4-yl)-3H-[1,2,3]triazolo[4,5-c]pyridazin-6-yl]quinolin-7-ol] stands 1000 to 3000 nM; under `Oc1cc(-c2cn[nH]c2)ccc1-c1cc2scc(C3=CCNCC3)c2nn1` [Cpd 15, 5-(1H-pyrazol-4-yl)-2-[7-(1,2,3,6-tetrahydropyridin-4-yl)thieno[3,2-c]pyridazin-3-yl]phenol], 1000 to 3000 nM; under `CC1(C)CC(n2nnc3cc(-c4ccc(-c5ccc6[nH]nnc6n5)cc4O)nnc32)CC(C)(C)N1` [Cpd 147, 2-[3-(2,2,6,6-tetramethylpiperidin-4-yl)-3H-[1,2,3]triazolo[4,5-c]pyridazin-6-yl]-5-(1H-[1,2,3]triazolo[4,5-b]pyridin-5-yl)phenol], 1000 to 3000 nM. `[2H]C([2H])([2H])n1cc(-c2ccc(-c3cc4nnn(C5CC(C)(C)NC(C)(C)C5)c4nn3)c(O)c2)cn1` [Cpd 69, 5-[1-(^2H3)methyl-1H-pyrazol-4-yl]-2-[3-(2,2,6,6-tetramethylpiperidin-4-yl)-3H-[1,2,3]triazolo[4,5-c]pyridazin-6-yl]phenol] registered an IC50 not above 100 nM. With `CC1(C)CC(n2nnc3cc(-c4cc5cn[nH]c5cc4O)nnc32)CC(C)(C)N1` [Cpd 94, 5-[3-(2,2,6,6-tetramethylpiperidin-4-yl)-3H-[1,2,3]triazolo[4,5-c]pyridazin-6-yl]-1H-indazol-6-ol], the IC50 was 500 to 1000 nM. `CC1(C)CC(n2nnc3cc(-c4ccc(-c5cccnc5)cc4O)nnc32)CC(C)(C)N1` [Cpd 65, 5-(pyridin-3-yl)-2-[3-(2,2,6,6-tetramethylpiperidin-4-yl)-3H-[1,2,3]triazolo[4,5-c]pyridazin-6-yl]phenol] displayed an IC50 of 500 to 1000 nM. On to `CC1(C)CC(n2ncc3cc(-c4ccc(-c5cn[nH]c5)cc4O)nnc32)CC(C)(C)N1` [Cpd 22, 5-(1H-pyrazol-4-yl)-2-[1-(2,2,6,6-tetramethylpiperidin-4-yl)-1H-pyrazolo[3,4-c]pyridazin-5-yl]phenol], for which the half-inhibitory concentration (IC50) is not above 100 nM. `CC1(C)CC(n2nnc3cc(-c4ccc(-c5ccnc(N)c5)cc4O)nnc32)CC(C)(C)N1` [Cpd 99, 5-(2-aminopyridin-4-yl)-2-[3-(2,2,6,6-tetramethylpiperidin-4-yl)-3H-[1,2,3]triazolo[4,5-c]pyridazin-6-yl]phenol] yielded an IC50 not above 100 nM. `CC1(C)CC(n2cnc3nc(-c4ccc(-c5cn[nH]c5)cc4O)cnc32)CC(C)(C)N1` [Cpd 1, 5-(1H-pyrazol-4-yl)-2-[1-(2,2,6,6-tetramethylpiperidin-4-yl)-1H-imidazo[4,5-b]pyrazin-5-yl]phenol] displayed an IC50 of 100 to 500 nM. As to `CC1(C)CC(n2nnc3cc(-c4ccc(-c5ccccn5)cc4O)nnc32)CC(C)(C)N1` [Cpd 61, 5-(pyridin-2-yl)-2-[3-(2,2,6,6-tetramethylpiperidin-4-yl)-3H-[1,2,3]triazolo[4,5-c]pyridazin-6-yl]phenol], the IC50 is 1000 to 3000 nM. Regarding `Cn1ccc(-c2ccc(-c3cc4nnn([C@H]5CC(C)(C)NC(C)(C)[C@H]5F)c4nn3)c(O)c2)cc1=O` [Cpd 171, 4-(4-{3-[(3S,4S)-3-fluoro-2,2,6,6-tetramethylpiperidin-4-yl]-3H-[1,2,3]triazolo[4,5-c]pyridazin-6-yl}-3-hydroxyphenyl)-1-methylpyridin-2(1H)-one], the IC50 was 100 to 500 nM. `CC1(C)CC(n2nnc3cc(-c4ccc(-c5cnccn5)cc4O)nnc32)CC(C)(C)N1` [Cpd 60, 5-(pyrazin-2-yl)-2-[3-(2,2,6,6-tetramethylpiperidin-4-yl)-3H-[1,2,3]triazolo[4,5-c]pyridazin-6-yl]phenol] returned an IC50 of 1000 to 3000 nM.

`Cn1cc(-c2ccc(-c3cc4cnn(C5CC(C)(C)NC(C)(C)C5)c4nn3)c(O)c2)cn1` [Cpd 98, 5-(1-methyl-1H-pyrazol-4-yl)-2-[1-(2,2,6,6-tetramethylpiperidin-4-yl)-1H-pyrazolo[3,4-c]pyridazin-5-yl]phenol] had an IC50 not above 100 nM. In turn, `CC1(C)CC(n2nnc3cc(-c4ccc(-c5ccsc5)cc4O)nnc32)CC(C)(C)N1` [Cpd 89, 2-[3-(2,2,6,6-tetramethylpiperidin-4-yl)-3H-[1,2,3]triazolo[4,5-c]pyridazin-6-yl]-5-(thiophen-3-yl)phenol] came in with an IC50 of 100 to 500 nM. `CC1(C)CC(n2nnc3cc(-c4ccc(-c5ccc6nncn6n5)cc4O)nnc32)CC(C)(C)N1` [Cpd 152, 2-[3-(2,2,6,6-tetramethylpiperidin-4-yl)-3H-[1,2,3]triazolo[4,5-c]pyridazin-6-yl]-5-([1,2,4]triazolo[4,3-b]pyridazin-6-yl)phenol] yielded an IC50 of 100 to 500 nM. Under `CC1(C)CC(n2nnc3cc(-c4ccc(-c5cn[nH]c5)c(F)c4O)nnc32)CC(C)(C)N1` [Cpd 54, 2-fluoro-3-(1H-pyrazol-4-yl)-6-[3-(2,2,6,6-tetramethylpiperidin-4-yl)-3H-[1,2,3]triazolo[4,5-c]pyridazin-6-yl]phenol] stands not above 100 nM.
